Patent US20080069896A1, “Antitumor Composition” (Kabushiki Kaisha Sangi, priority 2004, published 2008)
Like-named read-outs stand apart in the source and are kept apart here.

Key:
[1] = system: human lung cancer cell Lu99; assay: MTT assay, human lung cancer cell Lu99; format: cell-based
Description: (§1) Effect of platinum tetrachloride/hydroxyapatite (PtCl4/HAP) and hexachloroplatinate/hydroxyapatite (H2PtCl6/HAP) against human cancer cells (MTT assay)
(§2) According to “in vitro toxicity test using MTT”, which is an ordinary test method, MTT assay was performed for PtCl4/HAP (particle diameter 0.1 μm or less), and H2PtCl6/HAP (particle diameter 0.1 μm or less) by using 19 types of human cancer cells. PtCl4/HAP and H2PtCl6/HAP were used by adjusting the final dispersion concentration to 1.0% in a dispersion liquid each containing 10% platinum as a theoretical value. For comparison, MTT assay was performed for PtCl4 and CDDP. PtCl4 was dissolved at an adequate dose, and then used after serial dilution with PBS (−). For CDDP, injection liquid from Malco was used.

[2] = system: human lung cancer cell Lu65; assay: MTT assay, human lung cancer cell Lu65; format: cell-based
Description: as §1, §2

[3] = system: fibroblasts at confluency; assay: Microscopic observation of toxicity effect during resting stage; format: cell-based, rat
Description: A male mature rat was deeply anesthetized with ether, and disinfected by wiping carefully its tail with alcohol. The tail end part was cut by several centimeters, and the skin was removed from coccyx. Tendon was attached to the coccyx, and by culturing the same, fibroblasts can be recovered. Coccyx part was further cut finely with a sterilized pair of scissors, and adhered on a sterilized plastic plate with the cut surface down. After resting the plate for a while, DMEM supplemented with 10% FBS was added thereto. In approximately one week, fibroblasts germinated from the coccyx part, and proliferated in the plate. The fibroblasts collected from rat tail end were used for the following experiment.
From the result of Example 7, 2 ppm which is a value of platinum content that kills 50% of fibroblasts in CDDP during resting stage was set as a standard. Then, CDDP, PtCl4/HAP, PtCl4 and HAP dispersion liquids in an amount corresponding to 2 ppm of platinum content, were added to the fibroblasts at confluency in a medium, and cultured for 48 hours.

[4] = Lu99, platinum compound without hydroxyapatite, for comparison
[5] = Lu65, platinum compound without hydroxyapatite, for comparison

Compound: [Cl][Pt-2]([Cl])([Cl])[Cl].[K+].[K+] [K2PtCl4, dipotassium platinum tetrachloride]
- IC50 of human lung cancer cells by MTT assay [1, 4]: 12.1 ppm
- Platinum content calculated from IC50 of human lung cancer cell by MTT assay [1, 4]: 5.7 ppm
- IC50 of human lung cancer cells by MTT assay [2, 5]: 58.2 ppm
- Platinum content calculated from IC50 of human lung cancer cell by MTT assay [2, 5]: 27.4 ppm

Compound: [Cl][Pt-2]([Cl])([Cl])([Cl])([Cl])[Cl].[H+].[H+] [H2PtCl6, hexachloroplatinate]
- IC50 of human lung cancer cells by MTT assay [1]: 7.2 ppm
- Platinum content calculated from IC50 of human lung cancer cell by MTT assay [1]: 3.4 ppm
- IC50 of human lung cancer cells by MTT assay [2]: 11.1 ppm
- Platinum content calculated from IC50 of human lung cancer cell by MTT assay [2]: 5.3 ppm

Compound: Hydroxyapatite [HAP]
- Microscopic observation of cell form of cultured fibroblasts [3]: almost no abnormality was observed

Compound: platinum tetrachloride/hydroxyapatite [PtCl4/HAP]
- Microscopic observation of cell form of cultured fibroblasts [3]: fibroblasts did not lose their original form

Compound: [Cl][Pt-2]([Cl])([Cl])[Cl] [H2PtCl4, tetrachloroplatinate]
- IC50 of human lung cancer cells by MTT assay [1, 4]: 9.1 ppm
- IC50 of human lung cancer cells by MTT assay [2, 5]: 8.8 ppm
- Platinum content calculated from IC50 of human lung cancer cell by MTT assay [2, 5]: 5.1 ppm

Compound: [Cl][Pt-2]([Cl])([Cl])[Cl].[Na+].[Na+] [Na2PtCl4, disodium platinum tetrachloride]
- IC50 of human lung cancer cells by MTT assay [1, 4]: 9.2 ppm
- Platinum content calculated from IC50 of human lung cancer cell by MTT assay [1, 4]: 4.7 ppm
- IC50 of human lung cancer cells by MTT assay [2, 5]: 8.8 ppm
- Platinum content calculated from IC50 of human lung cancer cell by MTT assay [2, 5]: 4.5 ppm
